One block for each compound: values may come before it.
Tested on: 349418-098-R-PDC complex spheroid viability
Assay: Anticancer human tumor 349418-098-R-PDC patient-derived lung adenocarcinoma cell line growth inhibition [RAS]
Settings: for IC50: curve of first compound; for viability, T/C: stronger effect = lower value
How it was run: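 Agents were tested in combination matrices in half-log decrements from a top concentration at or near clinical Cmax (10 microM if undetermined). Targets were multi-cell spheroids of tumour lines plus HUVEC and MSC stromal cells.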

[1] = second compound 0.00316 µM, first compound 0.0316 µM
[2] = second compound 0.00316 µM, first compound 0.1 µM
[3] = second compound 0.00316 µM, first compound 0.316 µM
[4] = second compound 0.00316 µM, first compound 1 µM
[5] = second compound 0.00316 µM, first compound 3.16 µM
[6] = second compound 0.00316 µM, first compound 10 µM
[7] = second compound 0.01 µM, first compound 0.0316 µM
[8] = second compound 0.01 µM, first compound 0.1 µM
[9] = second compound 0.01 µM, first compound 0.316 µM
[10] = second compound 0.01 µM, first compound 1 µM
[11] = second compound 0.01 µM, first compound 3.16 µM
[12] = second compound 0.01 µM, first compound 10 µM
[13] = second compound 0.0316 µM, first compound 0.0316 µM
[14] = second compound 0.0316 µM, first compound 0.1 µM
[15] = second compound 0.0316 µM, first compound 0.316 µM
[16] = second compound 0.0316 µM, first compound 1 µM
[17] = second compound 0.0316 µM, first compound 3.16 µM
[18] = second compound 0.0316 µM, first compound 10 µM
[19] = second compound 0.1 µM, first compound 0.0316 µM
[20] = second compound 0.1 µM, first compound 0.1 µM
[21] = second compound 0.1 µM, first compound 0.316 µM
[22] = second compound 0.1 µM, first compound 1 µM
[23] = second compound 0.1 µM, first compound 3.16 µM
[24] = second compound 0.1 µM, first compound 10 µM
[25] = second compound 0.316 µM, first compound 0.0316 µM
[26] = second compound 0.316 µM, first compound 0.1 µM
[27] = second compound 0.316 µM, first compound 0.316 µM
[28] = second compound 0.316 µM, first compound 1 µM
[29] = second compound 0.316 µM, first compound 3.16 µM
[30] = second compound 0.316 µM, first compound 10 µM
[31] = second compound 1 µM, first compound 0.0316 µM
[32] = second compound 1 µM, first compound 0.1 µM
[33] = second compound 1 µM, first compound 0.316 µM
[34] = second compound 1 µM, first compound 1 µM
[35] = second compound 1 µM, first compound 3.16 µM
[36] = second compound 1 µM, first compound 10 µM
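Further: spheroids exposed to compound for seven days before viability readout.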

IC50 (second compound 0.00316 µM): 76.8 nM
IC50 (second compound 0.01 µM): 102 nM
IC50 (second compound 0.0316 µM): 84.7 nM
IC50 (second compound 0.1 µM): 62.2 nM
IC50 (second compound 0.316 µM): 38.2 nM
IC50 (second compound 1 µM): 53.8 nM
Compound: CC1(O)CCCC1n1c(=O)c(C(F)F)cc2cnc(NC3CCN(S(C)(=O)=O)CC3)nc21 (centres undefined) + C=CC(=O)N1CCN(c2nc(OCC3CCCN3C)nc3c(F)c(-c4nc(N)cc(C)c4C(F)(F)F)c(Cl)cc23)C(C)C1
viability, T/C [1]: 75.1%
viability, T/C [2]: 43.2%
viability, T/C [3]: 22.5%
viability, T/C [4]: 17%
viability, T/C [5]: 21.8%
viability, T/C [6]: 4.51%
viability, T/C [7]: 59.5%
viability, T/C [8]: 52.6%
viability, T/C [9]: 33.2%
viability, T/C [10]: 17.8%
viability, T/C [11]: 15.8%
viability, T/C [12]: 3.59%
viability, T/C [13]: 74.9%
viability, T/C [14]: 44.4%
viability, T/C [15]: 27.2%
viability, T/C [16]: 19.8%
viability, T/C [17]: 24.7%
viability, T/C [18]: 3.03%
viability, T/C [19]: 64.8%
viability, T/C [20]: 41%
viability, T/C [21]: 18.2%
viability, T/C [22]: 25.8%
viability, T/C [23]: 24.2%
viability, T/C [24]: 2.89%
viability, T/C [25]: 52.6%
viability, T/C [26]: 43.1%
viability, T/C [27]: 20.6%
viability, T/C [28]: 24.3%
viability, T/C [29]: 18.1%
viability, T/C [30]: 3.81%
viability, T/C [31]: 60.8%
viability, T/C [32]: 36%
viability, T/C [33]: 26.4%
viability, T/C [34]: 25.4%
viability, T/C [35]: 22.6%
viability, T/C [36]: 4.16%

IC50 (second compound 0.00316 µM): 720 nM
IC50 (second compound 0.01 µM): 996 nM
IC50 (second compound 0.0316 µM): 797 nM
IC50 (second compound 0.1 µM): 884 nM
IC50 (second compound 0.316 µM): 588 nM
IC50 (second compound 1 µM): 1100 nM
Compound: CCC(CC)c1cc(NC2CCC(N)C2)n2nccc2n1 (centres undefined) + C=CC(=O)N1CCN(c2nc(OCC3CCCN3C)nc3c(F)c(-c4nc(N)cc(C)c4C(F)(F)F)c(Cl)cc23)C(C)C1
viability, T/C [1]: 114%
viability, T/C [2]: 108%
viability, T/C [3]: 76.1%
viability, T/C [4]: 43.2%
viability, T/C [5]: 3.31%
viability, T/C [6]: 2.99%
viability, T/C [7]: 110%
viability, T/C [8]: 86.8%
viability, T/C [9]: 84.8%
viability, T/C [10]: 53.8%
viability, T/C [11]: 3.18%
viability, T/C [12]: 2.92%
viability, T/C [13]: 85.3%
viability, T/C [14]: 114%
viability, T/C [15]: 88%
viability, T/C [16]: 40.8%
viability, T/C [17]: 2.8%
viability, T/C [18]: 2.99%
viability, T/C [19]: 73%
viability, T/C [20]: 80.5%
viability, T/C [21]: 102%
viability, T/C [22]: 45.8%
viability, T/C [23]: 3.01%
viability, T/C [24]: 3.2%
viability, T/C [25]: 111%
viability, T/C [26]: 88.1%
viability, T/C [27]: 75.7%
viability, T/C [28]: 31.7%
viability, T/C [29]: 3.42%
viability, T/C [30]: 2.54%
viability, T/C [31]: 78.8%
viability, T/C [32]: 71.9%
viability, T/C [33]: 85.4%
viability, T/C [34]: 54.3%
viability, T/C [35]: 3.58%
viability, T/C [36]: 4.86%

From PubChem BioAssay AID2060904 (Molecular Pharmacology Branch, DTP, NCI, 2025)
